Measured values as given in US12162858B2, “Quinoline derivatives as inhibitors of AXL/MER RTK and CSF1R” (QURIENT CO., LTD., priority 2018, dated 2024).
pIC50: −log10 of the molar value.

biological target: T1, Axl (Homo sapiens, UniProt P30530); assay: Cellular Axl inhibition ELISA (p-Axl, Gas6-induced) using H1299 cells; assay type: cell-based; design: especially H1299 cell endogenously expresses Axl; endogenous in cells; host or cells: H1299; details: Elisa, comparison of compounds of present invention (**) vs compounds of WO2016/166250 (*), read-out: Cellular activity Axl (H1299) (IC50)
T1 sequence (P30530 26-894): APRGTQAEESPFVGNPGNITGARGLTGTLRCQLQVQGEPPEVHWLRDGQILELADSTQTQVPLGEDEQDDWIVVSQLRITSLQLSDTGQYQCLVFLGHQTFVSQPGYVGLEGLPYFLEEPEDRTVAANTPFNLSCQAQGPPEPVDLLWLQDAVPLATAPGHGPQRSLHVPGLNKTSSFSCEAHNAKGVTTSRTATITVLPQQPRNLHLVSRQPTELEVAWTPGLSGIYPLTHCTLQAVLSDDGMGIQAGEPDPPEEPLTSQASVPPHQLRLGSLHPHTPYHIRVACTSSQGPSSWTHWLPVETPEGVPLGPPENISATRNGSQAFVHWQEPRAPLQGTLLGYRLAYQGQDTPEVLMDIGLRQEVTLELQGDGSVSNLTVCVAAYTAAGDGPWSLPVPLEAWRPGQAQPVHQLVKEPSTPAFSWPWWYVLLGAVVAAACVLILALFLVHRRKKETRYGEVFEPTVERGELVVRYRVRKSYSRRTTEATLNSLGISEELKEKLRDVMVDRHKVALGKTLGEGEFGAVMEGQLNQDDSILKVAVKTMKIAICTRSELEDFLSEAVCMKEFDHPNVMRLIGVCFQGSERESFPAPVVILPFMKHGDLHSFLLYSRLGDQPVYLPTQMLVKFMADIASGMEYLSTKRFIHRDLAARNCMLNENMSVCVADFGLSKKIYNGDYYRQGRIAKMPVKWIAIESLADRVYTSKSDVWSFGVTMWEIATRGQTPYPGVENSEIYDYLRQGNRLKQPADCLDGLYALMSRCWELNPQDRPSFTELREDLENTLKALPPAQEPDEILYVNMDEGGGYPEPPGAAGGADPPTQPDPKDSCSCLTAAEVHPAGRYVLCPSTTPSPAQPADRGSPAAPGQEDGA
Procedure: Axl is expressed in several of malignant cancer cells; especially H1299 cell endogenously expresses Axl; and an increased phosphorylation of Axl (p-Axl) can be observed, when induced by the Axl ligand, Ga6.
The H1299 cells should be 40-80% confluent in the cell culture flask. Then cells are washed with DPBS and trypsinized. After centrifugation, the cell pellet is re-suspended with pre-warmed culture medium (RPMI1640, 10% FBS) and cells are separated by pipetting 6 times up and down with a 10 ml serological pipette. The cell suspension was diluted to a final concentration of 1.25×10^5 cells/ml. Then 80 μl/well cell suspension is added to the plate. Cell-plates are incubated at 37° C./5% CO2 overnight. Compounds were dissolved by DMSO to 10 mM, and kept in nitrogen cabinet. Prepare the compounds stock plate, the reference compounds concentration starts at 0.50 mM (5 μl+95 μl DMSO), and the tested compounds start at 1.5 mM (6 μl+34 μl DMSO); Then make a 3-fold dilution series (10 doses) compounds. Then dilute compounds by the medium in the mid plate (2 μl compounds+198 μl medium). Transfer 20 μl diluted compounds from mid plate to the cell coated plate. Cell-plates are incubated at 37° C./5% CO2 for 24 h. Add 25 μl of Human Gas6 (1000 ng/ml) to 96-well plate; the final concentration of Human Gas6 is 200 ng/ml. Incubate the plates at 37° C./5% CO2 for 1 h. Remove medium and wash cells once with 300 ul/well ice-cold 1×PBS. Then remove PBS and add 100 μl/well ice-cold 1× Cell Lysis Buffer to 96-well plate. The plate is shaken for 40 min at 4° C. Then plates can be stored at −20° C. After the micro-wells strips have reached room temperature, break off the required number of micro-wells. Place the micro-wells in the strip holder. Unused micro-wells must be resealed and stored at 4° C. immediately. Add 60 μl of cell lysate to the appropriate well. Seal with tape and press firmly onto top of micro-wells. Incubate the plate at 37° C. for 2 h. Gently remove the tape and wash wells 5 times with 1× Wash Buffer, 300 μl each time for each well. Add 100 μl of reconstituted Detection Antibody (green color) to each well. Seal with tape and incubate the plate at 37° C. for 1 h. Repeat wash procedure. Add 100 μl of reconstituted HRP Linked secondary antibody to each well. Seal with tape and incubate the plate at 37° C. for 30 min. Repeat wash procedure. Add 100 μl of TMB Substrate to each well. Seal with tape and incubate the plate at 37° C. for 15 min. Add 100 μl of STOP Solution to each well. Shake gently for a few seconds. Read absorbance at 450 nm within 30 min after adding STOP Solution. Calculations and Formulas: The following calculations and formulas are used for data analysis using XL Fit software: The curve fitting was made using the Sigmoidal Dose-Response Model (Fit model, 205).

Row | pIC50 | SMILES
1 | 8.28 | COCCn1cc(OCC(F)(F)F)c(C(=O)Nc2ccc(Oc3ccnc4cc(OC)c(OC)cc34)cn2)n1 [Compound 10]
2 | 7.36 | COc1cc2nccc(Oc3ccc(NC(=O)c4n[nH]cc4OCC(F)(F)F)nc3)c2cc1OC [Compound 16]

The remaining lines, values behind:

Row | SMILES | pIC50
3 | CCn1cc(OCC(F)(F)F)c(C(=O)Nc2ccc(Oc3ccnc4cc(OC)c(OC)cc34)cn2)n1 [Compound 4] | 8.47
4 | COc1cc2nccc(Oc3ccc(NC(=O)c4nn(CC5COC5)cc4OCC(F)(F)F)nc3)c2cc1OC [Compound 92] | 8.41

same assay, conditions: read-out: Cellular Axl activity by H1299 Elisa (IC50)

Row | pIC50 | SMILES
5 | > 6.30 | CCCn1cc(OCC(F)(F)F)c(C(=O)Nc2ccc(Oc3ccnc4cc(OC)c(OC)cc34)cn2)n1 [Compound 7]
6 | > 6.30 | CCn1cc(OCC2CCC2)c(C(=O)Nc2ccc(Oc3ccnc4cc(OC)c(OC)cc34)cn2)n1 [Compound 8]
7 | > 6.30 | COCCn1cc(OCC(F)(F)F)c(C(=O)Nc2ccc(Oc3ccnc4cc(OC)c(OC)cc34)cn2)n1 [Compound 10]
8 | > 6.30 | COc1cc2nccc(Oc3ccc(NC(=O)c4n[nH]cc4OCC(F)(F)F)nc3)c2cc1OC [Compound 16]
9 | > 6.30 | COc1cc2nccc(Oc3ccc(NC(=O)c4nn(CC5COC5)cc4OCC(F)(F)F)cc3F)c2cc1OC [Compound 97]
10 | > 6.30 | COc1cc2nccc(Oc3ccc(NC(=O)c4nn(CC5COC5)cc4OCC(F)(F)F)cc3C)c2cc1OC [Compound 99]
11 | > 6.30 | COc1cc2nccc(Oc3ccc(NC(=O)c4nn(CC5COC5)cc4OCC(F)(F)F)cc3)c2cc1OC [Compound 101]
12 | > 6.30 | CCCn1cc(OCCOC)c(C(=O)Nc2ccc(Oc3ccnc4cc(OC)c(OC)cc34)cn2)n1 [Compound 105]
13 | > 6.30 | CCCn1cc(OCC2COC2)c(C(=O)Nc2ccc(Oc3ccnc4cc(OC)c(OC)cc34)cn2)n1 [Compound 106]
14 | > 6.30 | COc1cc2nccc(Oc3ccc(NC(=O)c4nn(C5CC5)cc4OC(C)C)nc3)c2cc1OC [Compound 108]
15 | > 6.30 | COc1cc2nccc(Oc3ccc(NC(=O)c4nn(C5CC5)cc4OCCF)nn3)c2cc1OC [Compound 113]

Continued, compound first:

Row | SMILES | pIC50
16 | CCn1cc(OCC(F)(F)F)c(C(=O)Nc2ccc(Oc3ccnc4cc(OC)c(OC)cc34)cn2)n1 [Compound 4] | > 6.30
17 | CCn1cc(OC(C)C)c(C(=O)Nc2ccc(Oc3ccnc4cc(OC)c(OC)cc34)cn2)n1 [Compound 6] | > 6.30
18 | COc1cc2nccc(Oc3ccc(NC(=O)c4nn(CCN(C)C)cc4OCC(F)(F)F)nc3)c2cc1OC [Compound 9] | > 6.30
19 | CNCCn1cc(OCC(F)(F)F)c(C(=O)Nc2ccc(Oc3ccnc4cc(OC)c(OC)cc34)cn2)n1 [Compound 11] | > 6.30
20 | CCCn1cc(OCC(F)F)c(C(=O)Nc2ccc(Oc3ccnc4cc(OC)c(OC)cc34)cn2)n1 [Compound 12] | > 6.30
21 | COc1cc2nccc(Oc3ccc(NC(=O)c4nn(CC5COC5)cc4OCC(F)(F)F)nc3)c2cc1OC [Compound 92] | > 6.30
22 | COc1cc2nccc(Oc3ccc(NC(=O)c4nn(C5CCN(C)C5)cc4OCC(F)(F)F)cc3F)c2cc1OC (stereo not drawn) [Compound 96] | > 6.30
23 | COc1cc2nccc(Oc3ccc(NC(=O)c4nn(C5CCN(C)C5)cc4OCC(F)(F)F)cc3C)c2cc1OC (stereo not drawn) [Compound 98] | ≤ 6.00
24 | COc1cc2nccc(Oc3ccc(NC(=O)c4nn(C5CCN(C)C5)cc4OCC(F)(F)F)cc3)c2cc1OC (stereo not drawn) [Compound 100] | 6.00 to 6.30
25 | COc1cc2nccc(Oc3ccc(NC(=O)c4nn(C)cc4OCC(F)(F)F)nn3)c2cc1OC [Compound 102] | ≤ 6.00
26 | COc1cc2nccc(Oc3ccc(NC(=O)c4nn(CC(C)C)cc4OCC(F)(F)F)cn3)c2cc1OC [Compound 103] | > 6.30
27 | COCCn1cc(OCC(F)(F)F)c(C(=O)Nc2ccc(Oc3ccnc4cc(OC)c(OC)cc34)nc2)n1 [Compound 104] | 6.00 to 6.30
28 | COCCOc1cn(C2CC2)nc1C(=O)Nc1ccc(Oc2ccnc3cc(OC)c(OC)cc23)cn1 [Compound 107] | > 6.30
29 | COc1cc2nccc(Oc3ccc(NC(=O)c4nn(C5CC5)cc4OCC(F)F)nc3)c2cc1OC [Compound 109] | > 6.30
30 | COc1cc2nccc(Oc3ccc(NC(=O)c4nn(C5CC5)cc4OCCF)nc3)c2cc1OC [Compound 110] | > 6.30
31 | COc1cc2nccc(Oc3ccc(NC(=O)c4nn(C5CC5)cc4OCC4CCC4)nc3)c2cc1OC [Compound 111] | > 6.30
32 | COc1cc2nccc(Oc3ccc(NC(=O)c4nn(C5CC5)cc4OCC(F)(F)F)nn3)c2cc1OC [Compound 112] | > 6.30
33 | CCCn1cc(OCC(F)(F)F)c(C(=O)Nc2ccc(Oc3ccnc4cc(OC)c(OC)cc34)c(C(F)(F)F)c2)n1 [Compound 114] | > 6.30
